Assay [1] relates to vascular endothelial growth factor (VEGF). The experiment in a line: VEGF expression in Kelly neuroblastoma cells. Conditions: for VEGF: conditioned media after overnight incubation. In kind it is cell-based. How it is done: (§1) The effect of compounds of the present invention on expression of cytoprotective and neuroprotective factors in neuroblastoma cells was evaluated as follows. Kelly neuroblastoma cells (see, e.g., DSMZ, cat# ACC-355, Braunschweig Germany) were treated with various compounds of the present invention or 1% DMSO (negative control). Following an overnight incubation, the conditioned media was collected from cell cultures and analyzed for erythropoietin (EPO) and vascular endothelial growth factor (VEGF) expression using a QUANTIKINE immunoassay (R&D Systems, Inc., Minneapolis Minn.) according to the manufacturer's instructions.

Assay [2] relates to erythropoietin (EPO). Description: EPO expression in Kelly neuroblastoma cells. In kind it is cell-based. The note with it: for EPO: conditioned media after overnight incubation. How it is done:
as §1

Assay [3] relates to erythropoietin (EPO). The experiment in a line: EPO expression in Hep3B cells (QUANTIKINE immunoassay of conditioned media). In kind it is cell-based, Human. Conditions: for Fold Increase Over Control: EPO, vs 1% DMSO control; for EPO: conditioned media after overnight incubation with compound. How it is done: The effect of compounds of the present invention on expression of cytoprotective and neuroprotective factors in cells was evaluated as follows. Human cells derived from hepatocarcinoma (Hep3B) tissue (see, e.g., American Type Culture Collection, Manassas Va.) were seeded into 35 mm culture dishes and grown at 37° C., 20% O2, 5% CO2 in Minimal Essential Medium (MEM), Earle's balanced salt solution (Mediatech Inc., Herndon Va.), 2 mM L-glutamine, 0.1 mM non-essential amino acids, 1 mM sodium pyruvate, and 10% FBS. When cell layers reached confluence, the media was replaced with OPTI-MEM media (Invitrogen Life Technologies, Carlsbad Calif.) and cell layers were incubated for approximately 24 hours in 20% O2, 5% CO2 at 37° C. Various compounds of the present invention or 1% DMSO (negative control) were then added to existing media and incubation was continued overnight.
Following incubation, the conditioned media was collected from cell cultures and analyzed for erythropoietin (EPO) expression using a QUANTIKINE immunoassay (R&D Systems, Inc., Minneapolis Minn.) according to the manufacturer's instructions.

The next assay deals with erythropoietin. Description: Plasma EPO in mice after intravenous injection. In kind it is in vivo, Swiss Webster mice. Conditions: mouse plasma, 20 mg/kg i.v., four hours after injection; for fold induction at 20 mg/kg: iv, 4 h, read-out: EPO Fold Increase; for EPO: mouse EPO ELISA kit (**). How it is done:
(§2) The effect of compounds of the present invention on expression of cytoprotective and neuroprotective factors in vivo was evaluated as follows. In one series of experiments, male Swiss Webster mice (29-34 g) were administered various compounds of the present invention via intravenous injection into the caudal tail vein. Animals treated by intravenous injection received a 6 ml/kg volume of either 5% Dextrose with an equimolar amount of NaOH or Meglumine (vehicle control) or 20 mg/kg of a compound of the present invention in 5% dextrose with an equimolar amount of NaOH or Meglumine. Four hours after injection, the animals were anesthetized and exsanguinated. Plasma samples were collected in EDTA and heparin coated microtainer tubes. Plasma samples were assayed for erythropoietin and VEGF using commercially-available ELISA kits purchased from R & D Systems (Minneapolis Minn.).

Another assay has as its system VEGF. The experiment in a line: Plasma VEGF in mice after intravenous injection. The class given is in vivo, Swiss Webster mice. Conditions: mouse plasma, 20 mg/kg i.v., four hours after injection; for fold induction at 20 mg/kg: iv, 4 h, read-out: VEGF Fold Increase. The method, then: as §2

In the case of `O=C(O)CNC(=O)c1nc(Sc2ccc(Cl)cc2)c2ccccc2c1O` [Compound U, {[1-(4-Chloro-phenylsulfanyl)-4-hydroxy-isoquinoline-3-carbonyl]-amino}-acetic acid], in assay [1], the “VEGF Fold Increase” value was found to be 9.7 and the VEGF came out at 1526.0 pg/mL. Also, in the assay on erythropoietin (EPO) [2], the “EPO Fold Increase” value is 1.4 and the EPO is 8.9 mIU/ml.

In the case of `COc1ccc(Oc2ccc3c(Cl)nc(C(=O)NCC(=O)O)c(O)c3c2)cc1` [Compound H, {[1-Chloro-4-hydroxy-6-(4-methoxy-phenoxy)-isoquinoline-3-carbonyl]-amino}-acetic acid], in the assay on erythropoietin (EPO) [3], the “Fold Increase Over Control” value is listed as 5.4 and the EPO is 84.0 mIU/ml.

As for `O=C(O)CNC(=O)c1nc2cc(Cl)ccc2c(I)c1O` [Compound T, [(7-Chloro-3-hydroxy-4-iodo-quinoline-2-carbonyl)-amino]acetic acid], in assay [1], the “VEGF Fold Increase” value is recorded as 5.6 and the VEGF is 8159 pg/mL. Also, in the assay with erythropoietin, the fold induction at 20 mg/kg is 4.65 and the EPO came to 498 pg/mL. Besides, in the assay with erythropoietin (EPO) [3], the “Fold Increase Over Control” value stood at 49.3 and the EPO is 100.7 mIU/ml. Moreover, in the assay on erythropoietin (EPO) [2], the “EPO Fold Increase” value was 15.83 and the EPO is on record as 299.1 mIU/ml. Further, in the assay on VEGF, the fold induction at 20 mg/kg worked out at 1.24 and the VEGF stood at 31 pg/mL.

With `Cc1nc(C(=O)NCC(=O)O)c(OCc2ccccc2)c2ccc(Oc3ccccc3)cc12` [Compound K, [(4-Benzyloxy-1-methyl-7-phenoxy-isoquinoline-3-carbonyl)-amino]-acetic acid], in the assay on erythropoietin (EPO) [3], the “Fold Increase Over Control” value is listed as 1.8 and the EPO was determined as 57.4 mIU/ml.

Regarding `Cc1nc(C(=O)NCC(=O)O)c(O)c2ccc(Oc3ccccc3)cc12` [Compound J, [(4-Hydroxy-1-methyl-7-phenoxy-isoquinoline-3-carbonyl)-amino]-acetic acid], the EPO with erythropoietin (EPO) [3] was determined as 120.0 mIU/ml.

With `O=C(O)CNC(=O)c1nc(-c2ccoc2)c2ccsc2c1O` [Compound AI, [(4-Furan-3-yl-7-hydroxy-thieno[3,2-c]pyridine-6-carbonyl)-amino]-acetic acid], in assay [1], the “VEGF Fold Increase” value was determined as 4.8 and the VEGF is 7003 pg/mL. In the assay on erythropoietin, the fold induction at 20 mg/kg was found to be 1.96 and the EPO was 221 pg/mL. Also, in the assay on erythropoietin (EPO) [3], the “Fold Increase Over Control” value is recorded as 6.1 and the EPO was 7.9 mIU/ml. For the same compound, in the assay with erythropoietin (EPO) [2], the “EPO Fold Increase” value is on record as 17.02 and the EPO is listed as 321.6 mIU/ml. In the assay on VEGF, the fold induction at 20 mg/kg is 0.91 and the VEGF is 20 pg/mL.

For `N#Cc1nc(C(=O)NCC(=O)O)c(O)c2cccc(Oc3ccccc3)c12` [Compound W, [(1-Cyano-4-hydroxy-8-phenoxy-isoquinoline-3-carbonyl)-amino]-acetic acid], in assay [1], the “VEGF Fold Increase” value is recorded as 5.0 and the VEGF worked out at 1846 pg/mL. In the assay on erythropoietin, the fold induction at 20 mg/kg is 45.6 and the EPO came to 725.4 pg/mL. Besides, in the assay on erythropoietin (EPO) [2], the “EPO Fold Increase” value was 11.35 and the EPO amounted to 214.6 mIU/ml. For the same compound, in the assay on VEGF, the fold induction at 20 mg/kg worked out at 1.38 and the VEGF came out at 40 pg/mL.

For the compound `N#Cc1nc(C(=O)NCC(=O)O)c(O)c2ccc(Cc3ccccc3)cc12` [Compound AR, [(7-Benzyl-1-cyano-4-hydroxy-isoquinoline-3-carbonyl)-amino]-acetic acid], in assay [1], the “VEGF Fold Increase” value came out at 10.8 and the VEGF stood at 14745 pg/mL. Besides, in the assay on erythropoietin, the fold induction at 20 mg/kg came to 22.8 and the EPO was 11000 pg/mL. Further, in the assay on erythropoietin (EPO) [3], the “Fold Increase Over Control” value worked out at 21.8 and the EPO is on record as 82.7 mIU/ml. For the same compound, in the assay with erythropoietin (EPO) [2], the “EPO Fold Increase” value was 32.17 and the EPO is 842.9 mIU/ml. In the assay on VEGF, the fold induction at 20 mg/kg worked out at 0.83 and the VEGF came out at 29 pg/mL.

Take `O=C(O)CNC(=O)c1ncc2cc(SC3CCCCC3)ccc2c1O` [Compound V, [(7-Cyclohexylsulfanyl-4-hydroxy-isoquinoline-3-carbonyl)-amino]-acetic acid]: in assay [1], the “VEGF Fold Increase” value is reported as 13.5 and the VEGF stood at 2132.0 pg/mL. For the same compound, in the assay on erythropoietin (EPO) [2], the “EPO Fold Increase” value worked out at 3.9 and the EPO was 24.2 mIU/ml.

Turning to `O=C(O)CNC(=O)c1nc2cc(Cl)ccc2c(-c2cccc(C(F)(F)F)c2)c1O` [Compound AU, {[7-Chloro-3-hydroxy-4-(3-trifluoromethyl-phenyl)-quinoline-2-carbonyl]-amino}-acetic acid], in assay [1], the “VEGF Fold Increase” value turned out to be 5.1 and the VEGF stood at 6877 pg/mL. For the same compound, in the assay with erythropoietin (EPO) [3], the “Fold Increase Over Control” value is given as 7.1 and the EPO is on record as 19.2 mIU/ml. Also, in the assay on erythropoietin (EPO) [2], the “EPO Fold Increase” value is listed as 4.16 and the EPO is on record as 109.1 mIU/ml.

Turning to `N#Cc1nc(C(=O)NCC(=O)O)c(O)c2ccc(Cl)cc12` [Compound S, [(7-Chloro-1-cyano-4-hydroxy-isoquinoline-3-carbonyl)-amino]-acetic acid], in assay [1], the “VEGF Fold Increase” value amounted to 1.9 and the VEGF was determined as 725 pg/mL. Moreover, in the assay on erythropoietin, the fold induction at 20 mg/kg is 40.8 and the EPO was 460.6 pg/mL. In the assay on erythropoietin (EPO) [3], the “Fold Increase Over Control” value came out at 10.1 and the EPO was determined as 12.5 mIU/ml. Also, in the assay on erythropoietin (EPO) [2], the “EPO Fold Increase” value was 2.89 and the EPO was 40.4 mIU/ml. Besides, in the assay on VEGF, the fold induction at 20 mg/kg was found to be 0.68 and the VEGF stood at 15 pg/mL.

For the compound `O=C(O)CNC(=O)c1nc2cc(-c3ccc(Cl)cc3)sc2cc1O` [Compound Q, {[2-(4-Chloro-phenyl)-6-hydroxy-thieno[3,2-b]pyridine-5-carbonyl]-amino}-acetic acid], in assay [1], the “VEGF Fold Increase” value is listed as 4.4 and the VEGF turned out to be 6369 pg/mL. Moreover, in the assay on erythropoietin, the fold induction at 20 mg/kg is 1.61 and the EPO was 17.1 pg/mL. In addition, in the assay with erythropoietin (EPO) [3], the “Fold Increase Over Control” value is listed as 4.8 and the EPO was determined as 37.1 mIU/ml. In the assay with erythropoietin (EPO) [2], the “EPO Fold Increase” value is given as 2.80 and the EPO was determined as 52.9 mIU/ml. For the same compound, in the assay on VEGF, the fold induction at 20 mg/kg is 1.28 and the VEGF is 50 pg/mL.

As to `O=C(O)CNC(=O)c1nc(Cl)c2ccccc2c1O` [Compound A, [(1-Chloro-4-hydroxy-isoquinoline-3-carbonyl)-amino]-acetic acid], in the assay on erythropoietin (EPO) [3], the “Fold Increase Over Control” value came to 13.6 and the EPO stood at 18.3 mIU/ml.

With `Cc1cccc2c(Cl)nc(C(=O)NCC(=O)O)c(O)c12` [Compound D, [(1-Chloro-4-hydroxy-5-methyl-isoquinoline-3-carbonyl)-amino]-acetic acid], in the assay on erythropoietin (EPO) [3], the “Fold Increase Over Control” value amounted to 2.7 and the EPO was 205.7 mIU/ml.

As to `O=C(O)CNC(=O)c1ncc2c(-c3ccc(F)cc3)c(-c3ccc(F)cc3)sc2c1O` [Compound AJ, {[2,3-Bis-(4-fluoro-phenyl)-7-hydroxy-thieno[3,2-c]pyridine-6-carbonyl]-amino}-acetic acid], in assay [1], the “VEGF Fold Increase” value stood at 3.0 and the VEGF worked out at 4102 pg/mL. Besides, in the assay on erythropoietin, the fold induction at 20 mg/kg was found to be 2.53 and the EPO stood at 271 pg/mL. In the assay with erythropoietin (EPO) [3], the “Fold Increase Over Control” value stood at 42.8 and the EPO is 62.9 mIU/ml. In the assay on VEGF, the fold induction at 20 mg/kg was found to be 1.16 and the VEGF is 29 pg/mL.

Consider `O=C(O)CNC(=O)c1nc2cc(Cl)ccc2cc1O` [Compound B, [(7-Chloro-3-hydroxy-quinoline-2-carbonyl)-amino]-acetic acid], for which, in the assay with erythropoietin (EPO) [3], the “Fold Increase Over Control” value stood at 9.8 and the EPO is given as 14.2 mIU/ml.

Consider `O=C(O)CNC(=O)c1nc2ccc(Oc3ccccc3)cc2cc1O` [Compound C, [(3-Hydroxy-6-phenoxy-quinoline-2-carbonyl)-amino]-acetic acid], for which, in assay [1], the “VEGF Fold Increase” value was found to be 9.1 and the VEGF worked out at 1445.7 pg/mL. In addition, in the assay with erythropoietin (EPO) [3], the “Fold Increase Over Control” value came to 2.2 and the EPO is 241.4 mIU/ml. In addition, in the assay on erythropoietin (EPO) [2], the “EPO Fold Increase” value is 3.5 and the EPO was 21.8 mIU/ml.

The values are drawn from patent publication US9775902B2, “Compounds and methods for treatment of stroke” (FIBROGEN, INC, priority 2006, dated 2017).
